In patent US7074789B2, “Kinase inhibitors” (Amgen Inc., priority 1999, dated 2006):
Read-outs that look alike come from different tables or passages of the source.

Experiments:
Format in all cases: biochemical
Lck = molecular target: T1, Lck (Homo sapiens, UniProt P06239); assay: Kinase inhibition assay (33P transfer), Lck
T1 construct: Kinases are expressed as either kinase domains or full length constructs; made in house
How it was run: (§1)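 Recombinant kinase-domain or full-length fusion proteins (GST or His tag) served as enzyme. Substrate poly(Glu,Tyr) 4:1 or poly(Arg,Ser) 3:1 was bound to the plate; transferred 33P was read by liquid scintillation following acid washing.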

Zap-70 = molecular target: T2, Zap-70 (Homo sapiens, UniProt P43403); assay: Kinase inhibition assay (33P transfer), Zap-70
T2 construct: Kinases are expressed as either kinase domains or full length constructs; made in house
T2 sequence (P43403 1-619): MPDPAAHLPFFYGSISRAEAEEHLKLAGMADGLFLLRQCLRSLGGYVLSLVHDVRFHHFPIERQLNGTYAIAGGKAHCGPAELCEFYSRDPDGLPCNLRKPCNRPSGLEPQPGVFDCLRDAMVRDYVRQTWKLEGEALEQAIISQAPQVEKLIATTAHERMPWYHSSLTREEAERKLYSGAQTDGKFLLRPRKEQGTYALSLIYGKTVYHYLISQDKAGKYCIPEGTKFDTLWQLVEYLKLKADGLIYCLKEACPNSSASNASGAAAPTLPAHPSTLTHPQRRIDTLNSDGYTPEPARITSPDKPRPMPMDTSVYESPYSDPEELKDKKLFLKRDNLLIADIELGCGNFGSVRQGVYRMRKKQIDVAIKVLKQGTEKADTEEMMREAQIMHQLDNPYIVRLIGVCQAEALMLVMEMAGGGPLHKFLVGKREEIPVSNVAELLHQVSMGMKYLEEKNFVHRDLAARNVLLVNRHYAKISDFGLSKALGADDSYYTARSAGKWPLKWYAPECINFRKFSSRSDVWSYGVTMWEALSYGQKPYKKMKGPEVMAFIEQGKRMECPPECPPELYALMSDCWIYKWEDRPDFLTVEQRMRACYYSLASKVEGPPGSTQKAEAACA
How it was run: as §1

Itk = molecular target: T3, Itk (Homo sapiens, UniProt Q08881); assay: Kinase inhibition assay (33P transfer), Itk; settings: Table 3, class symbols; read-out: Itk-1
T3 construct: Kinases are expressed as either kinase domains or full length constructs; made in house
T3 sequence (Q08881 1-620): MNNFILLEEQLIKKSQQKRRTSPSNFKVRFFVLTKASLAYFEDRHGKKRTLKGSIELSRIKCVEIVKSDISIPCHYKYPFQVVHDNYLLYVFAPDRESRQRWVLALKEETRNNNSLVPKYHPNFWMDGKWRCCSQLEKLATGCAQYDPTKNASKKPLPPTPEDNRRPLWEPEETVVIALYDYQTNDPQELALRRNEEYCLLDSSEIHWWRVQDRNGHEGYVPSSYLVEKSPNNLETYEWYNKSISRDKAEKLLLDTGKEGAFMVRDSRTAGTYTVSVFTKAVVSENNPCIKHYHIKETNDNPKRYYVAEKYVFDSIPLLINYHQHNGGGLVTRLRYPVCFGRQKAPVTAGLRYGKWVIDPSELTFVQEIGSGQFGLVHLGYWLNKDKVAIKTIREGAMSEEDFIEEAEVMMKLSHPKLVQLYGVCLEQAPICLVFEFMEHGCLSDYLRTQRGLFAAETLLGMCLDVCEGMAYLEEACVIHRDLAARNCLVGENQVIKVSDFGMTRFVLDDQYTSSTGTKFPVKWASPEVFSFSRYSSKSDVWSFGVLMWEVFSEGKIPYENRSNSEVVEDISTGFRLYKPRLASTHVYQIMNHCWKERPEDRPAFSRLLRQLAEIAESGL
How it was run: (§2)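 Using immobilised substrate copolymers (poly(Glu,Tyr) 4:1; poly(Arg,Ser) 3:1) and [33P]ATP, purified fusion kinases were allowed to react; plates were then rinsed in 0.5% phosphoric acid and counted in a scintillation detector. Half-maximal inhibition of label transfer defines IC50.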

EGFR = molecular target: T4, EGFR (Homo sapiens, UniProt P00533); assay: Kinase inhibition assay (33P transfer), EGFR; settings: Table 2, class symbols A-E; read-out: EGFR-1
T4 construct: Kinases are expressed as either kinase domains or full length constructs; made in house
How it was run: as §2

ErbB2 = molecular target: T5, ErbB2 (Homo sapiens, UniProt P04626); assay: Kinase inhibition assay (33P transfer), ErbB2; settings: read-out: ErbB2-2
T5 construct: Kinases are expressed as either kinase domains or full length constructs; made in house
How it was run: as §2

Kdr = molecular target: T6, Kdr (Homo sapiens, UniProt P35968); assay: Kinase inhibition assay (33P transfer), Kdr; settings: Table 3, class symbols; read-out: KDR-1
T6 construct: Kinases are expressed as either kinase domains or full length constructs; made in house
How it was run: as §1

c-Met = molecular target: T7, c-Met (Homo sapiens, UniProt P08581); assay: Kinase inhibition assay (33P transfer), c-Met; settings: Table 2, class symbols A-E; read-out: Met-1
T7 construct: Kinases are expressed as either kinase domains or full length constructs; made in house
How it was run: as §2

AKT = molecular target: T8, AKT (Homo sapiens, UniProt Q9Y243); assay: Kinase inhibition assay (33P transfer), AKT
T8 construct: Kinases are expressed as either kinase domains or full length constructs; made in house
How it was run: as §1

IGFR-1 = molecular target: T9, IGFR-1 (Homo sapiens, UniProt P08069); assay: Kinase inhibition assay (33P transfer), IGFR-1; settings: Table 2, class symbols A-E
T9 construct: Kinases are expressed as either kinase domains or full length constructs; made in house

[1] = Table 3, class symbols, read-out: Lck-1
[2] = Table 3, class symbols, read-out: Zap-1
[3] = Table 2, class symbols A-E, read-out: AKT3-1

T8 sequence (Q9Y243 whole entry, the tested form may be a part): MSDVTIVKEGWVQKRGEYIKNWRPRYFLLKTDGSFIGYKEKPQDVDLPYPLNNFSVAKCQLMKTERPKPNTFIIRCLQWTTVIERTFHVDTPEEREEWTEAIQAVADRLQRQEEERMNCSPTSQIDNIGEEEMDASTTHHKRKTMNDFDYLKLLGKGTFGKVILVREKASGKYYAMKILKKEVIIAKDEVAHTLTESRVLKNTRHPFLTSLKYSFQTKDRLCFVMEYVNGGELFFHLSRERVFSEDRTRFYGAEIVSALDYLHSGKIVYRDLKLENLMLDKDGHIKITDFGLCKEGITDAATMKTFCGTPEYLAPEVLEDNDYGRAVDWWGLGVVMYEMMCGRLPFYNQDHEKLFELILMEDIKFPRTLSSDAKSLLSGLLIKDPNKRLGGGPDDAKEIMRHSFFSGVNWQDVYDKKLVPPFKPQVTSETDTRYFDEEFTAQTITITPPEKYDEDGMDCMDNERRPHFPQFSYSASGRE
T4 sequence (P00533 25-1210, species assumed): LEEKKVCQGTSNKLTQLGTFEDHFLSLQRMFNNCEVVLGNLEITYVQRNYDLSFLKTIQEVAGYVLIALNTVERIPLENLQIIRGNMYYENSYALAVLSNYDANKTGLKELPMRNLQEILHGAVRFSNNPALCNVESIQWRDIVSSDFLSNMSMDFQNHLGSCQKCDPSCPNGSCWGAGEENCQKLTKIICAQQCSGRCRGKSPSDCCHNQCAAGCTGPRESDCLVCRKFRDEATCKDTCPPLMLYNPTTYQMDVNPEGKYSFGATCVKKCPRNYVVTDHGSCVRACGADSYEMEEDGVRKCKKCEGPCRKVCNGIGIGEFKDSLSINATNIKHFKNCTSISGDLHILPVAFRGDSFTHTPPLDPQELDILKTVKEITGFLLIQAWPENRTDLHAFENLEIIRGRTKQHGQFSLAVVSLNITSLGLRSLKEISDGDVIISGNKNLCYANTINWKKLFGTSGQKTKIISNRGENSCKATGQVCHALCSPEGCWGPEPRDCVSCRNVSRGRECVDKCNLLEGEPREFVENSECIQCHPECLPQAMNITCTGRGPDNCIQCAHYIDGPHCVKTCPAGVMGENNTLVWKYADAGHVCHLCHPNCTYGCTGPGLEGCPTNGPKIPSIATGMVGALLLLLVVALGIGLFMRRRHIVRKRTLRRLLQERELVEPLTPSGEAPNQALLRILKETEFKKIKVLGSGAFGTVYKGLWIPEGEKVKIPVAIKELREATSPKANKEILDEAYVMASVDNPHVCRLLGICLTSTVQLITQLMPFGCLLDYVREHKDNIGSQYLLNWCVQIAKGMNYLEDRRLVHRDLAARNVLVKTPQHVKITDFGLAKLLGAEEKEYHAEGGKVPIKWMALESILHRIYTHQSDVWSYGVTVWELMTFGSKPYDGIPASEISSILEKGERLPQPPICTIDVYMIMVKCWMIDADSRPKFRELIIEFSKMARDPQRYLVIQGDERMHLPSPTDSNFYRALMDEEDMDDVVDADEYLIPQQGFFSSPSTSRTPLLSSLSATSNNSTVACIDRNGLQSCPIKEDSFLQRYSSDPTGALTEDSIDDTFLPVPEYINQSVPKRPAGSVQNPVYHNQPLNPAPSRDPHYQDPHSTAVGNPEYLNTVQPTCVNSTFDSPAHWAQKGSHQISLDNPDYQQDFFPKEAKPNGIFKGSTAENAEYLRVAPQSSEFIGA
T5 sequence (P04626 23-1255, species assumed): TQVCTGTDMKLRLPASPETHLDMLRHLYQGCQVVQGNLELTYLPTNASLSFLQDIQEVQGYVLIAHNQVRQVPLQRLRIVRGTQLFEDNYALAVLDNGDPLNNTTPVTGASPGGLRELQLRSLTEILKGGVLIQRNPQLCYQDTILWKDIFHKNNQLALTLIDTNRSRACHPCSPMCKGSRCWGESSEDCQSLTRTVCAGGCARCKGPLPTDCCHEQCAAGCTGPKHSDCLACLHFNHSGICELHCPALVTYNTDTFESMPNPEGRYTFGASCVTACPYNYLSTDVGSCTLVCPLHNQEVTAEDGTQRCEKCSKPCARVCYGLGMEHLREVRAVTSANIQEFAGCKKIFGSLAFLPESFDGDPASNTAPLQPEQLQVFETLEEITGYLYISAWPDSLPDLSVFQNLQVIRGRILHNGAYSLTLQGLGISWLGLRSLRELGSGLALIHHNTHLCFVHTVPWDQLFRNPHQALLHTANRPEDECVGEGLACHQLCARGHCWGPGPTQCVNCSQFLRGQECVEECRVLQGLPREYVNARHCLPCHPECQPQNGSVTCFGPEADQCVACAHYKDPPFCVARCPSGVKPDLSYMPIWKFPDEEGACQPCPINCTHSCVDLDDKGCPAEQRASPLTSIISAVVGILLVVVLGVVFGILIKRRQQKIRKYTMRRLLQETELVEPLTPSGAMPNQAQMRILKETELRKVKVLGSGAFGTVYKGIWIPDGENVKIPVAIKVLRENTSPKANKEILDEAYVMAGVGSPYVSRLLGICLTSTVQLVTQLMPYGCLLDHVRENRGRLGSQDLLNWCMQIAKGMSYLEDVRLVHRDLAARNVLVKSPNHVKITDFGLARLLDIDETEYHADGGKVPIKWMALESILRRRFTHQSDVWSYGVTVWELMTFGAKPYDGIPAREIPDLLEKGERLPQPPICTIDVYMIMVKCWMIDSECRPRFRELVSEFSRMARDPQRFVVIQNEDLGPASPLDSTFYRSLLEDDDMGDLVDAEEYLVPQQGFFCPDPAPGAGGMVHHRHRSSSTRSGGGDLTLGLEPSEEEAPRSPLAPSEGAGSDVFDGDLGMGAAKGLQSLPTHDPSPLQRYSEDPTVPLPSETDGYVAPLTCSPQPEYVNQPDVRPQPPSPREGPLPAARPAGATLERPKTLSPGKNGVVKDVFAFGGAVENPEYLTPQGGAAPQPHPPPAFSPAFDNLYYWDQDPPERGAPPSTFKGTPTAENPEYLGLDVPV
T1 sequence (P06239 whole entry, species assumed, the tested form may be a part): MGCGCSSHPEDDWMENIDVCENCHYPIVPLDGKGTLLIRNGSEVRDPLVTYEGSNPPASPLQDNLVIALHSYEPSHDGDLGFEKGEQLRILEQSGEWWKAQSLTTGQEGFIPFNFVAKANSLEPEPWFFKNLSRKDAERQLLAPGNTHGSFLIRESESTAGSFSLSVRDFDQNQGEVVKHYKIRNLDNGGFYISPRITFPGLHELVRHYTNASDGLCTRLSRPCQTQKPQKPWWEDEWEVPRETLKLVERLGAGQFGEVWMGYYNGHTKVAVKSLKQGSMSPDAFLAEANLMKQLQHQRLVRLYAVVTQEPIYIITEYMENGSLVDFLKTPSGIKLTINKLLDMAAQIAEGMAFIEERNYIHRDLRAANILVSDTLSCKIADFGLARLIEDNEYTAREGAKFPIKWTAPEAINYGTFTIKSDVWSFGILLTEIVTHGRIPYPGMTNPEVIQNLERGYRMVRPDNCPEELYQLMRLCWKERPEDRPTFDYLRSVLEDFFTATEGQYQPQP
T9 sequence (P08069 31-1367): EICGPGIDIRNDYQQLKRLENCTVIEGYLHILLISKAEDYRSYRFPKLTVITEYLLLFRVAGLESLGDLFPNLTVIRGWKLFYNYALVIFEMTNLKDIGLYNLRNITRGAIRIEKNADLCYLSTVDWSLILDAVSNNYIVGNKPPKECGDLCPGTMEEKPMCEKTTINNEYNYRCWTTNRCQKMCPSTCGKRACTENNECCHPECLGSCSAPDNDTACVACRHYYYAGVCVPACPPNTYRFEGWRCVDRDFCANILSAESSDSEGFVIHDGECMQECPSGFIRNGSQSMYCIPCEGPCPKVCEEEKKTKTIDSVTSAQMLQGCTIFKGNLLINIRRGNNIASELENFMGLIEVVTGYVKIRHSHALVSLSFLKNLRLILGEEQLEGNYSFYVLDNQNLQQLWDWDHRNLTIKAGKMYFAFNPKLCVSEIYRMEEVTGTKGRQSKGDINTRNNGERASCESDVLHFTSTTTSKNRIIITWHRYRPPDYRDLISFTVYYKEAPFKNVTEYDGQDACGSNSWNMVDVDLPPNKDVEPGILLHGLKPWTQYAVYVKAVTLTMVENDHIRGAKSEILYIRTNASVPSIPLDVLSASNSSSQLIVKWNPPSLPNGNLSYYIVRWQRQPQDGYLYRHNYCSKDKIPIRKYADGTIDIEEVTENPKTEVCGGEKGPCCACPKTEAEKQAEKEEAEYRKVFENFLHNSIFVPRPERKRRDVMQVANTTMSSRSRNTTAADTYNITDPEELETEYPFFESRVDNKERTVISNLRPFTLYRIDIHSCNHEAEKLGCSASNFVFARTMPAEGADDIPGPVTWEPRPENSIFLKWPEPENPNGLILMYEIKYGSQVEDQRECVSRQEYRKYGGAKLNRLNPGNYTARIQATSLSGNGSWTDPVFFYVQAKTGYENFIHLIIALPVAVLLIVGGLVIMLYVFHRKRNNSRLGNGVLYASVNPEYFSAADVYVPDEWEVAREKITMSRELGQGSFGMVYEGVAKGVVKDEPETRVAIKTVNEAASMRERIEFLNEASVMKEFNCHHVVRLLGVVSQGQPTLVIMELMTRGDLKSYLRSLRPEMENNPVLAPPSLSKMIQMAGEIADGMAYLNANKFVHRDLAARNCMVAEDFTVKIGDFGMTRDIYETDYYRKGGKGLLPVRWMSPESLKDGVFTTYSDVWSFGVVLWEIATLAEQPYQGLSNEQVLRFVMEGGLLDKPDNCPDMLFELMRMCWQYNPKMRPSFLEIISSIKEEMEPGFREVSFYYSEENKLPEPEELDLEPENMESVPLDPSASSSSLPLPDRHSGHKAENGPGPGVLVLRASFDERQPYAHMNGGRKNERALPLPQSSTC

Structure (SMILES) | IC50 (Lck; [1]) [µM] | IC50 (Zap-70; [2]) [µM] | IC50 (Itk) [µM] | IC50 (EGFR) [µM] | IC50 (ErbB2) [µM] | IC50 (Kdr) [µM] | IC50 (c-Met) [µM] | IC50 (AKT; [3]) [µM] | IC50 (IGFR-1) [µM] | IC50 (Lck; Lck-1, Table 3, class symbols) [µM] | IC50 (Zap-70) [µM] | IC50 (AKT; AKT3-1, Table 2, class symbols A-E) [µM]
c1ccc(Nc2ncccc2-c2ncnc(Nc3ccc(N4CCOCC4)cc3)n2)cc1 [Compound 1113] | 5.64 to 8.23 | 0.94 to 5.64 | > 10.6 | 0.94 to 5.64 | 0.94 to 5.64 | 0.94 to 5.64 | 0.94 to 5.64 | > 10.6 | > 10.6 |  |  | 
CN(c1ccc2c(cnn2Cc2ccccc2)c1)c1ncnc(Nc2cccc(Cn3ccnn3)c2)n1 [Compound 677] | 0.819 to 4.91 | > 9.21 | 4.91 to 7.16 | < 0.819 | < 0.819 | < 0.819 | < 0.819 | > 9.21 | 4.91 to 7.16 |  |  | 
CCOc1ccc(Nc2ncnc(N(C)c3cccc(Cl)c3)n2)cc1OCC [Compound 640] | 1 to 6 | > 11.3 | > 11.3 | < 1 | < 1 | 1 to 6 | 1 to 6 | > 11.3 | > 11.3 |  |  | 
CC(C)Nc1ncccc1-c1ncnc(Nc2ccc(N3CCOCC3)cc2)n1 [Compound 1112] | 1.02 to 6.13 | > 11.5 | 8.94 to 11.5 | 1.02 to 6.13 | 1.02 to 6.13 | < 1.02 | 1.02 to 6.13 | > 11.5 | > 11.5 |  |  | 
COc1ccc(Nc2ncnc(NCC(=O)c3ccccc3)n2)cc1OC [Compound 857] | > 12.3 | > 12.3 | > 12.3 | 6.57 to 9.58 | 6.57 to 9.58 | > 12.3 | > 12.3 | > 12.3 | > 12.3 |  |  | 
COc1ccc(Nc2ncnc(N(C)c3ccc(C(=O)O)cc3)n2)cc1OC [Compound 860] | > 11.8 | > 11.8 | > 11.8 | > 11.8 | 9.18 to 11.8 | 6.29 to 9.18 | 1.05 to 6.29 | > 11.8 | 6.29 to 9.18 |  |  | 
COc1ccc(Nc2ncnc(NCc3ncc(C(F)(F)F)cc3Cl)n2)cc1OC [Compound 858] | > 10.2 | > 10.2 | > 10.2 | 5.44 to 7.94 | > 10.2 | > 10.2 | > 10.2 | > 10.2 | > 10.2 |  |  | 
COc1cc(Nc2ncnc(Nc3cc(-c4ccc(C(N)=O)cc4)n[nH]3)n2)cc(OC)c1OC [Compound 642] | < 0.865 | > 9.73 | 0.865 to 5.19 | 0.865 to 5.19 | 0.865 to 5.19 | 0.865 to 5.19 | < 0.865 | > 9.73 | < 0.865 |  |  | 
COc1ccc(Nc2ncnc(N(C)C3CCN(C)CC3)n2)cc1OC [Compound 861] | > 12.6 | > 12.6 | > 12.6 | > 12.6 | 6.7 to 9.76 | > 12.6 | > 12.6 | > 12.6 | > 12.6 |  |  | 
COc1cc(Nc2ncnc(-c3cccnc3Nc3ccccc3)n2)cc(OC)c1OC [Compound 1092] |  |  | > 10.5 | > 10.5 | > 10.5 |  | > 10.5 |  | > 10.5 | > 10.5 | > 10.5 | > 10.5
COc1ccc(Nc2ncnc(N(C)c3ccc(OC(F)(F)F)cc3)n2)cc1OC [Compound 866] | 5.7 to 8.31 | > 10.7 | > 10.7 | 0.949 to 5.7 |  | 0.949 to 5.7 | 0.949 to 5.7 | > 10.7 | > 10.7 |  |  | 
